Legend:
Assay in all cases: relative viability (nuclei count vs DMSO), 5 days (fraction); higher = more cells survive
[1] = tested on: LCLC-97TM1
Procedure, shortened: (§1)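 Five library-drug doses in √10 steps were combined with a fixed anchor-drug dose, or a single drug was given alone, by pin tool to lung cancer cell lines in 1536-well plates the day after seeding. Nuclei were stained and counted after 5 days. Relative viability is the nuclei count in treated wells over that in vehicle wells, taken as the median of duplicate plates.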

[2] = tested on: BEN
Procedure, shortened: as §1

[3] = tested on: EPLC-272H
Procedure, shortened: as §1

[4] = tested on: HCC-78
Procedure, shortened: as §1

[5] = tested on: LU99A
Procedure, shortened: as §1

[6] = tested on: LK-2
Procedure, shortened: as §1

[7] = tested on: NCI-H727
Procedure, shortened: as §1

[8] = tested on: COR-L 105
Procedure, shortened: as §1

[9] = tested on: HCC-827
Procedure, shortened: as §1

[10] = tested on: NCI-H2087
Procedure, shortened: as §1

[11] = tested on: NCI-H1792
Procedure, shortened: as §1

[12] = tested on: LOU-NH91
Procedure, shortened: as §1

[13] = tested on: NCI-H522
Procedure, shortened: as §1

[14] = tested on: EKVX
Procedure, shortened: as §1

[15] = tested on: NCI-H2126
Procedure, shortened: as §1

[16] = tested on: SW 900
Procedure, shortened: as §1

[17] = tested on: NCI-H358
Procedure, shortened: as §1

[18] = tested on: NCI-H1650
Procedure, shortened: as §1

[19] = tested on: EMC-BAC-2
Procedure, shortened: as §1

[20] = tested on: SK-MES-1
Procedure, shortened: as §1

[21] = tested on: SW 1573
Procedure, shortened: as §1

COCC1(CO)C(=O)C2CCN1CC2 (stereo not given) [PRIMA-1MET] + CC(=O)c1c(C)c2cnc(Nc3ccc(N4CCNCC4)cn3)nc2n(C2CCCC2)c1=O [Palbociclib] (partner 0.5 µM)
relative viability ([1]; first compound 0.2 µM): 0.215
relative viability ([1]; first compound 0.6325 µM): 0.192
relative viability ([1]; first compound 2 µM): 0.193
relative viability ([1]; first compound 6.325 µM): 0.264
relative viability ([1]; first compound 20 µM): 0.206
relative viability ([2]; first compound 0.2 µM): 0.46
relative viability ([2]; first compound 0.6325 µM): 0.463
relative viability ([2]; first compound 6.325 µM): 0.463
relative viability ([2]; first compound 20 µM): 0.437
relative viability ([3]; first compound 0.2 µM): 0.312
relative viability ([3]; first compound 0.6325 µM): 0.276
relative viability ([3]; first compound 2 µM): 0.329
relative viability ([3]; first compound 6.325 µM): 0.336
relative viability ([3]; first compound 20 µM): 0.289
relative viability ([4]; first compound 0.2 µM): 0.449
relative viability ([4]; first compound 0.6325 µM): 0.507
relative viability ([4]; first compound 2 µM): 0.397
relative viability ([4]; first compound 6.325 µM): 0.446
relative viability ([4]; first compound 20 µM): 0.427
relative viability ([5]; first compound 0.2 µM): 0.43
relative viability ([5]; first compound 0.6325 µM): 0.414
relative viability ([5]; first compound 2 µM): 0.414
relative viability ([5]; first compound 6.325 µM): 0.349
relative viability ([5]; first compound 20 µM): 0.225
relative viability ([6]; first compound 0.2 µM): 0.814
relative viability ([6]; first compound 0.6325 µM): 0.705
relative viability ([6]; first compound 2 µM): 0.534
relative viability ([6]; first compound 6.325 µM): 0.211
relative viability ([6]; first compound 20 µM): 0.0375
relative viability ([7]; first compound 0.2 µM): 0.629
relative viability ([7]; first compound 0.6325 µM): 0.584
relative viability ([7]; first compound 6.325 µM): 0.672
relative viability ([7]; first compound 20 µM): 0.379
relative viability ([8]; first compound 0.2 µM): 0.41
relative viability ([8]; first compound 0.6325 µM): 0.363
relative viability ([8]; first compound 2 µM): 0.385
relative viability ([8]; first compound 6.325 µM): 0.41
relative viability ([8]; first compound 20 µM): 0.16
relative viability ([9]; first compound 0.2 µM): 0.573
relative viability ([9]; first compound 0.6325 µM): 0.462
relative viability ([9]; first compound 2 µM): 0.403
relative viability ([9]; first compound 6.325 µM): 0.506
relative viability ([9]; first compound 20 µM): 0.615
relative viability ([10]; first compound 0.6325 µM): 0.183
relative viability ([10]; first compound 2 µM): 0.22
relative viability ([10]; first compound 6.325 µM): 0.203
relative viability ([10]; first compound 20 µM): 0.13
relative viability ([11]; first compound 0.2 µM): 0.633
relative viability ([11]; first compound 0.6325 µM): 0.596
relative viability ([11]; first compound 2 µM): 0.622
relative viability ([11]; first compound 6.325 µM): 0.7
relative viability ([11]; first compound 20 µM): 0.638
relative viability ([12]; first compound 0.2 µM): 0.507
relative viability ([12]; first compound 0.6325 µM): 0.514
relative viability ([12]; first compound 2 µM): 0.54
relative viability ([12]; first compound 6.325 µM): 0.508
relative viability ([12]; first compound 20 µM): 0.452
relative viability ([13]; first compound 0.2 µM): 1.05
relative viability ([13]; first compound 0.6325 µM): 0.94
relative viability ([13]; first compound 2 µM): 0.862
relative viability ([13]; first compound 6.325 µM): 0.774
relative viability ([13]; first compound 20 µM): 0.25
relative viability ([14]; first compound 0.2 µM): 0.42
relative viability ([14]; first compound 2 µM): 0.346
relative viability ([14]; first compound 6.325 µM): 0.368
relative viability ([14]; first compound 20 µM): 0.321
relative viability ([15]; first compound 0.2 µM): 0.335
relative viability ([15]; first compound 0.6325 µM): 0.336
relative viability ([15]; first compound 2 µM): 0.321
relative viability ([15]; first compound 6.325 µM): 0.372
relative viability ([15]; first compound 20 µM): 0.326
relative viability ([16]; first compound 0.2 µM): 0.601
relative viability ([16]; first compound 0.6325 µM): 0.564
relative viability ([16]; first compound 6.325 µM): 0.559
relative viability ([16]; first compound 20 µM): 0.0834
relative viability ([17]; first compound 0.2 µM): 0.148
relative viability ([17]; first compound 0.6325 µM): 0.154
relative viability ([17]; first compound 2 µM): 0.115
relative viability ([17]; first compound 6.325 µM): 0.137
relative viability ([17]; first compound 20 µM): 0.112
relative viability ([18]; first compound 0.2 µM): 0.322
relative viability ([18]; first compound 0.6325 µM): 0.331
relative viability ([18]; first compound 2 µM): 0.317
relative viability ([18]; first compound 6.325 µM): 0.315
relative viability ([18]; first compound 20 µM): 0.0802
relative viability ([19]; first compound 0.2 µM): 0.586
relative viability ([19]; first compound 0.6325 µM): 0.466
relative viability ([19]; first compound 2 µM): 0.478
relative viability ([19]; first compound 6.325 µM): 0.503
relative viability ([19]; first compound 20 µM): 0.499
relative viability ([20]; first compound 0.2 µM): 0.323
relative viability ([20]; first compound 0.6325 µM): 0.371
relative viability ([20]; first compound 2 µM): 0.326
relative viability ([20]; first compound 6.325 µM): 0.291
relative viability ([20]; first compound 20 µM): 0.295
relative viability ([21]; first compound 0.2 µM): 0.456
relative viability ([21]; first compound 0.6325 µM): 0.317
relative viability ([21]; first compound 2 µM): 0.345
relative viability ([21]; first compound 6.325 µM): 0.0953
relative viability ([21]; first compound 20 µM): 0.0194

Reference: the supplement of paper PMC10307832
